Test results taken from patent publication US20200009135A1, “THERAPEUTIC APPLICATIONS OF MALT1 INHIBITORS” (MEDIVIR AB, priority 2017, published 2020).

Assays:
[1] = test system: CD4+FoxP3+CD25+ cell induction; assay: Development of human T-regulatory cells from naive CD4 T cells (FoxP3+CD25+ induction); format: cell-based; conditions: 3 donors, 0.4 μM, 0.4 μM and 4.0 μM
Procedure: Naïve CD4 T cell sorting and stimulation for regulatory T cell development A flat-bottom 48 well plate was coated with 250 μl of purified functional grade anti-human CD3 at 2 μg/ml in PBS. The plate was sealed and incubated at 37° C. for one hour. Peripheral blood mononuclear cells (PBMC) were isolated from human leucocyte reduction system cones by differential density centrifugation using Ficoll-PLUS (GE Healthcare). Cells were washed three times in RPMI+1% HI-FCS+1% penicillin/streptomycin (P/S) (1% RPMI), then resuspended at a concentration of 200×10^6/ml of 1% RPMI. An aliquot of cells was set aside for single colour controls, and the sample was stained at a dilution of 1:20 with anti-human CD4, anti-human CD45RA, anti-human CD25, and anti-human CD127 (antibodies from BioLegend and eBioscience) for 20 minutes on ice. Following the incubation, the stained PBMC were washed and resuspended at 50×10^6/ml in PBS+1% HI-FCS. Cells were sorted on a BD […] high speed cell sorter for the phenotype CD4+CD45RA+CD127+CD25-. Following the sort, cells were resuspended at 4×10^6/ml in pre-warmed cRPMI containing […] human IL-2 (final concentration 100 U/ml). […]
Staining Regulatory T Cell Cultures Induced regulatory T cell cultures were washed and counted. […]
CD4+ naïve T cells cultured for 10 days were analysed for their expression of FoxP3 and CD25. […]

[2] = test system: Treg suppression of CD4+CD25- effector T cell proliferation; assay: Treg suppressive activity (suppression of CD4+CD25- effector T cell proliferation); format: cell-based, human
Procedure: PBMC were isolated from fresh blood by differential density centrifugation using Ficoll-PLUS (GE Healthcare). Cells were washed three times in RPMI+1% heat-inactivated foetal calf serum (HI-FCS)+1% penicillin/streptomycin (P/S) (1% RPMI), then resuspended in PBS+2% heat inactivated foetal calf serum (HI-FCS)+2.0 mM EDTA (isolation buffer). CD4+CD25- and CD4+CD25+ T cells were isolated, per the manufacturer's instructions (Miltenyi CD4+CD25+ Regulatory T cell Isolation Kit, human). Isolated CD4+CD25− T cells were then labeled with Cell Proliferation Dye eFluor® 450 per manufacturer's instructions (eBioscience). An aliquot of cells was stained with anti-CD3 and anti-CD4 (BioLegend and eBioscience) to assess cell purity and dye labeling by flow cytometry. Cultures were plated in cRPMI, with […] CD4+CD25− cells per well. […]
FIG. 2. The proliferation of CD4+CD25− T cells, purified from a different donor and labelled with Cell Proliferation Dye eFluor® 450, was assessed following a 4 day activation with anti-CD3/CD28 beads. There was a robust proliferation of the cells, and they were readily distinguished from unlabeled cultured cells (generated in the 10 day culture period).
The number of proliferating CD4+CD25− “effector” T cells was determined at each ratio (1:4, 1:2, 1:1) of these cells to the cultured cells generated in the previous 10 day culture period (cultured “Treg”). […]

[3] = test system: CMV-specific (NLV+) CD8+ Teff cells expressing IFNγ or TNFα; assay: Human whole blood stimulated with (MTTE)3-CMV vaccine; format: cell-based; conditions: 4 μM with 120 nM (MTTE)3-CMV vaccine, 6 hours, three donors
Procedure: Freshly drawn whole blood from healthy volunteers (2 mL) in a tube was incubated under rotation at 37° C. for 6 hours. […]. After 2 hours Brefeldin-A was added to allow intra-cellular analysis of cytokines (IFNγ and TNFα) by flow-cytometry. Antigen-specific CD8+ T-cells were identified by fluorescence-conjugated tetrameric complexes of HLA-A2 molecules loaded with the NLV peptide epitope ([…]) of CMV pp65.

[4] = Follow-up 5 day cell growth assay WSU-NHL (CC50); format: cell-based; conditions: human, WSU-NHL cells

Structure (SMILES): CO[C@@H](C)c1c(NC(=O)Nc2cnc(-n3nccn3)c(Cl)c2)cnc2cc(Cl)nn12 [Example 2, (S)-1-(5-chloro-6-(2H-1,2,3-triazol-2-yl)pyridin-3-yl)-3-(2-chloro-7-(1-methoxyethyl)pyrazolo[1,5-a]pyrimidin-6-yl)urea]
- generation of a Treg phenotype and function ([1]; highest degree of inhibition with 4.0 μM): inhibit
- CD4+FoxP3+CD25+ cell induction ([1]; IL-2+TGFβ, 10 days, highest concentration most effective): robust inhibition
- Treg suppression of effector cell proliferation, donor 1 ([2]; donor 1, 0.4 μM, 0.4 μM and 4.0 μM): reduced
- Treg suppression of proliferation of responding effector T cells, donors 2 and 3 ([2]; donors 2 and 3, increasing concentrations): reduced by increasing concentrations
- percentage of activated antigen-specific IFNγ+ and TNFα+ CD8+ T cells [3]: increase
- CC50 at 5 days [4]: 77 µM
